Reference: patent publication US8394971B2, “Indole derivatives as selective androgen receptor modulators (SARMS)” (Janssen Pharmaceutica N.V., priority 2004, dated 2013)

What follows are compounds tested on testosterone-enhanced ventral prostate and seminal vesicle weights in castrated male Sprague Dawley rats (assay: Ventral Prostate and Seminal Vesicle Weight In Vivo Assay). Conditions: immature castrated rats; once daily for five days, usually orally at 40 mg/kg, with testosterone propionate 2 mg/kg s.c.
Set-up: species or system rat
Protocol: Immature (approximately 50 g) castrated male Sprague Dawley rats (Charles River) were treated once daily for five days with test compound (usually given orally at 40 mg/kg in a volume of 0.3 mL, in 30% cyclodextrin or 0.5% methylcellulose vehicle) and with testosterone propionate (given subcutaneously by injection at the nape of the neck at 2 mg/kg, in a volume of 0.1 mL in sesame oil). On the sixth day, the rats were euthanized by asphyxiation in carbon dioxide. Ventral prostates and seminal vesicles were removed and their wet weights determined.
A test compound was said to be “active” if the non weight adjusted prostate weight was ≦40 mg or the % Inhibition prostate weight, body weight adjusted was ≧40% @2 mg/day dosage.

SMILES	active / inactive (inhibition of testosterone-enhanced prostate weight)
CC(O)(c1cc2cc(C#N)c(C(F)(F)F)cc2[nH]1)C(F)(F)F (stereo not shown) [Compound #335, 2-(2,2,2-Trifluoro-1-hydroxy-1-methyl-ethyl)-6-trifluoromethyl-1H-indole-5-carbonitrile]	active
CC(O)(COc1ccc(C#N)cc1)c1cc2cc(C#N)c(C(F)(F)F)cc2[nH]1 (stereo not shown) [Compound #426, 2-[2-(4-Cyano-phenoxy)-1-hydroxy-1-methyl-ethyl]-6-trifluoromethyl-1H-indole-5-carbonitrile]	inactive
CC(O)(COc1cccc([N+](=O)[O-])c1)c1cc2cc(C#N)c(C(F)(F)F)cc2[nH]1 (stereo not shown) [Compound #428, 2-[1-Hydroxy-1-methyl-2-(3-nitro-phenoxy)-ethyl]-6-trifluoromethyl-1H-indole-5-carbonitrile]	inactive
CC(O)(COc1ccc(C#N)c(C(F)(F)F)c1)c1cc2cc(C#N)c(C(F)(F)F)cc2[nH]1 (stereo not shown) [Compound #429, 2-[2-(4-Cyano-3-trifluoromethyl-phenoxy)-1-hydroxy-1-methyl-ethyl]-6-trifluoromethyl-1H-indole-5-carbonitrile]	inactive
CCSCC(C)(O)Cc1cc2cc([N+](=O)[O-])c(C(F)(F)F)cc2[nH]1 (stereo not shown) [compound 10]	inactive
CCSCC(C)(CO)c1cc2cc([N+](=O)[O-])c(C(F)(F)F)cc2[nH]1 (stereo not shown) [compound 11]	inactive
CCSCC(O)(CSCC)c1cc2cc([N+](=O)[O-])c(C(F)(F)F)cc2[nH]1 [compound 13]	inactive
O=[N+]([O-])c1cc2cc(C3(O)CCSC3)[nH]c2cc1C(F)(F)F (stereo not shown) [compound 18]	inactive
CC(O)(CS(=O)(=O)c1ccc(F)cc1)c1cc2cc(Cl)c(C(F)(F)F)cc2[nH]1 (stereo not shown) [compound 85]	inactive
CC(O)(C[S+]([O-])c1ccc(F)cc1)c1cc2cc(Cl)c(C(F)(F)F)cc2[nH]1 (stereo not shown) [compound 113]	inactive
CSCC(C)(O)c1cc2cc(Cl)c(C(F)(F)F)cc2n1S(C)(=O)=O (stereo not shown) [compound 134]	inactive
CCSCC(C)(O)c1cc2cc(N)c(C(F)(F)F)cc2[nH]1 (stereo not shown) [compound 166]	inactive
CCSCC(C)(OC)c1cc2cc([N+](=O)[O-])c(C(F)(F)F)cc2[nH]1 (stereo not shown) [compound 167]	active
CCS(=O)(=O)CC(C)(O)c1cc2cc([N+](=O)[O-])c(C(F)(F)F)cc2[nH]1 (stereo not shown) [compound 175]	active
CC(C)(O[Si](C)(C)C)c1cc2cc([N+](=O)[O-])c(C(F)(F)F)cc2n1S(C)(=O)=O [compound 269]	inactive
CC(C)(O[Si](C)(C)C)c1cc2cc(Cl)c(C(F)(F)F)cc2n1S(C)(=O)=O [compound 270]	inactive
CC(C)(O)c1cc2cc([N+](=O)[O-])c(C(F)(F)F)cc2n1S(C)(=O)=O [compound 273]	inactive
CC(C)(O)c1cc2cc([N+](=O)[O-])c(C(F)(F)F)cc2[nH]1 [compound 274]	inactive
CC(C)(O)c1[nH]c2cc(C(F)(F)F)c([N+](=O)[O-])cc2c1Cl [compound 275]	active

SMILES	active / inactive (inhibition of testosterone-enhanced prostate weight)
CC(C)(O)c1[nH]c2cc(C(F)(F)F)c([N+](=O)[O-])cc2c1I [compound 276]	active
CC(C)(O)c1[nH]c2cc(C(F)(F)F)c([N+](=O)[O-])cc2c1Br [compound 277]	active
CC(C)(O)c1[nH]c2cc(C(F)(F)F)c(C#N)cc2c1I [compound 278]	active
CC(C)(O)c1[nH]c2cc(C(F)(F)F)c(Cl)cc2c1I [compound 279]	inactive
CC(C)(O)c1[nH]c2cc(C(F)(F)F)c(Cl)cc2c1Br [compound 280]	inactive
C=Cc1c(C(C)(C)O)[nH]c2cc(C(F)(F)F)c([N+](=O)[O-])cc12 [compound 281]	inactive
CC(C)(O)c1[nH]c2cc(C(F)(F)F)c(Cl)cc2c1Cl [compound 282]	inactive
CC(C)(O)c1cc2cc(Cl)c(C(F)(F)F)cc2n1S(C)(=O)=O [compound 284]	active
CC(C)(O)c1cc2cc(Cl)c(C(F)(F)F)cc2[nH]1 [compound 285]	inactive
CC(C)(O)c1[nH]c2cc(C(F)(F)F)c(C#N)cc2c1Cl [compound 287]	inactive
CC(C)(O)c1[nH]c2cc(C(F)(F)F)c(C#N)cc2c1Br [compound 288]	active
Cc1c(C(C)(C)O)[nH]c2cc(C(F)(F)F)c(C#N)cc12 [compound 289]	active
Cc1c(C(C)(C)O)[nH]c2cc(C(F)(F)F)c([N+](=O)[O-])cc12 [compound 290]	inactive
CC(C)(O)c1[nH]c2cc(C(F)(F)F)c([N+](=O)[O-])cc2c1C#N [compound 291]	active
CC(C)(O)c1cc2cc(Br)ccc2[nH]1 [compound 294]	inactive
CC(C)(O)c1[nH]c2cc(C(F)(F)F)c(C#N)cc2c1C#N [compound 295]	inactive
N#Cc1cc2cc(C(O)(C(F)(F)F)C(F)(F)F)[nH]c2cc1C(F)(F)F [compound 357]	active
CC(C)(O)c1cc2cc(Cl)c(Cl)cc2[nH]1 [compound 405]	inactive
